The values below come from paper PMC8466300, “Investigating the Central Nervous System Disposition of Actinomycin D: Implementation and Evaluation of Cerebral Microdialysis and Brain Tissue Measurements Supported by UPLC-MS/MS Quantification” (Pharmaceutics, 2021).

A short description of this data set: Plasma and brain tissue concentrations after intravenous bolus injection (CNS disposition). The data set is classed as in vivo, mice. Particulars: for Brain-to-Plasma Ratio: total concentrations. The method, then:
The experiments were carried out in accordance with the European regulations for care and use of laboratory animals (2010/63/EU) under the German license number G-187/18 and the internal reference number DKFZ374, approved by the responsible regional council (Regierungspräsidium Karlsruhe, Germany). Female 8-week-old NSG mice (NOD.Cg-Prkdc^scid Il2rg^tm1Wjl/SzJ-NOD-SCID gamma-mice) with a weight of approximately 25 g were used for the studies. For microdialysis experiments, a microdialysis guide cannula was stereotactically implanted into the right striatum and stabilized with screws and dental acrylic cement. Mice received analgesia (metamizole) and anesthesia with isoflurane during surgery. After six days of recovery, the microdialysis procedure was initiated. A microdialysis probe (CMA7, 1 mm, molecular cut-off 55 kDa, CMA Microdialysis AB, Kist, Sweden) was inserted through the guide cannula and connected to a pump system operating at a constant flow rate of 0.5 µL/min Ringer-1 % bovine serum albumin (BSA) solution. Throughout the study, mice could freely move. Microdialysis samples were serially collected each hour. Because the number of blood collections in individual mice is limited, we estimated the optimal timepoints for a pharmacokinetic feasibility study by allometric simulation of actinomycin D’s pharmacokinetic profile in mice according to published data in humans. For the allometric simulation, mouse plasma pharmacokinetic profiles were simulated by allometrically scaling the clearance and volumes parameters using classic exponents (0.75 for clearances and 1 for volumes) […], based on 0.5 mg/kg dosage. […] Therefore, we chose to take blood samples 0.75, 6, and 22 h after intravenous bolus injection into the tail vein for the assay’s feasibility pharmacokinetic experiment. Three animals received an intravenous bolus injection of 0.5 mg/kg actinomycin D in 0.125 mL per mouse (25 g) of a 0.1 mg/mL dosing solution. This dosage corresponds to the usual therapy protocols in humans according to allometric scaling. Full blood samples were transferred into citrate tubes (Sarstedt, Germany) and centrifuged at 1600× g for 10 min to generate plasma samples, which were stored at −80 °C until analysis. For determination of actinomycin D disposition in the CNS, brain tissue, and plasma samples were harvested following euthanasia with increasing concentrations of CO2 at 2 h (three animals) or 22 h (four animals) after intravenous bolus injection of 0.5 mg/kg actinomycin D. Samples were stored at −80 °C until analysis. For validation of the UPLC-MS/MS quantification, blank plasma from 6 naïve mice was used and blank brain tissue was obtained from 2 unexposed mice. Whole brain tissue was homogenized using a Bead Ruptor 4 homogenizer (Omni International Inc, Kennesaw, GA, USA) in acetonitrile (ACN)/water (1/19, v/v) + 0.5 % Triton X and 0.1 % formic acid (FA) (100 mg brain tissue/mL) in 2.0 mL tubes containing ~25 glass beads (0.75–1 mm; Carl Roth GmbH, Karlsruhe, Germany) for 2 × 1 min.
For protein precipitation of plasma microsamples, an excess of ACN (50 µL) with 0.1% FA containing the IS was applied to an Impact® 96-well protein precipitation plate (Phenomenex, Torrance, CA, USA). Subsequently, 20 µL of the plasma samples were added and the plates sealed and shaken for 1 min. Brain tissue homogenate samples were processed accordingly. For protein depletion, samples were filtered into a 96-well collection plate (Waters, Milford, MA, USA) by applying positive pressure with a 96-well positive pressure unit (Waters, Milford, MA, USA) operated with air overpressure of 5 psi. After addition of 40 µL of water containing 0.1% FA, the collection plates were sealed, shaken, and extracts injected onto the UPLC system.

Values joined by “and” are separate entries in the source; they are usually repeats but may differ in a detail not shown here. Equal entries are not always repeated. *1 amine or outer side, *2 acyl side, *3 side chain or, on linkers, in order; H or OH if unused. Where a SMILES comes first, the peptide text is derived from it. Bridges are numbered along the chain shown (N, C = ends). Roman numbers before positions name the chains, in order. [ ]: non-standard residue; d: D form. Actinocin(9to1) = Cc1c2oc3c(C)ccc(C(=O)[*:1])c3nc-2c(C(=O)[*:2])c(N)c1=O; NMeV = CN[C@H](C(=O)O)C(C)C; Sar = CNCC(=O)O

With `Cc1c2oc3c(C)ccc(C(=O)N[C@@H]4C(=O)N[C@H](C(C)C)C(=O)N5CCC[C@H]5C(=O)N(C)CC(=O)N(C)[C@@H](C(C)C)C(=O)O[C@@H]4C)c3nc-2c(C(=O)N[C@@H]2C(=O)N[C@H](C(C)C)C(=O)N3CCC[C@H]3C(=O)N(C)CC(=O)N(C)[C@@H](C(C)C)C(=O)O[C@@H]2C)c(N)c1=O` [actinomycin D, Actinomycin D] (I: T[dV]P[Sar][NMeV] / II: T[dV]P[Sar][NMeV]; ester I:1-I:C, II:1-II:C; linker I:N-II:N via Actinocin(9to1)), the level at time molar at 2 h (female, NSG (NOD.Cg-Prkdc^scid Il2rg^tm1Wjl/SzJ), mouse, brain, iv, mice, 0.5 mg/kg i.v., after 2 h, read-out: brain tissue concentration) is roughly 3 nM. In addition, the level at time molar at 22 h (female, NSG (NOD.Cg-Prkdc^scid Il2rg^tm1Wjl/SzJ), mouse, brain, iv, mice, 0.5 mg/kg i.v., after 22 h, read-out: brain tissue concentration) was roughly 1.2 nM. Besides, the tissue level at time at 2 h (female, NSG (NOD.Cg-Prkdc^scid Il2rg^tm1Wjl/SzJ), mouse, iv, mice, 0.5 mg/kg i.v., 2 h, whole brain homogenate after cardiac perfusion with PBS, UPLC-MS/MS, mean of 3 mice, read-out: Brain Actinomycin D (total brain tissue concentration)) was found to be 4.1 ng/g. Where the note is “female, NSG (NOD.Cg-Prkdc^scid Il2rg^tm1Wjl/SzJ), mouse, plasma, iv, mice, 0.5 mg/kg i.v., 2 h after administration, UPLC-MS/MS, mean of 3 mice, read-out: Plasma Actinomycin D”, the level at 2 h came out at 22.7 ± 3.9 ng/mL. For the same compound, the tissue level at time at 22 h (female, NSG, mouse, iv, mice, 0.5 mg/kg i.v., 22 h, whole brain homogenate after cardiac perfusion with PBS, UPLC-MS/MS, mean of 4 mice, read-out: Brain Actinomycin D (total brain tissue concentration)) worked out at 1.67 ± 0.77 ng/g. Also, the level at 22 h (female, NSG, mouse, plasma, iv, mice, 0.5 mg/kg i.v., 22 h after administration, UPLC-MS/MS, mean of 4 mice, read-out: Plasma Actinomycin D) amounted to 3.4 ± 1.45 ng/mL. Further, the “Brain Actinomycin D (total brain tissue concentration)” value (mice, 0.5 mg/kg i.v., 2 h, whole brain homogenate after cardiac perfusion with PBS, UPLC-MS/MS, mean of 3 mice, 0.5 mg/kg) was determined as 4.14 ± 0.50 ng/g. Besides, the “Brain-to-Plasma Ratio” value by setting is: (mice, 0.5 mg/kg i.v., 2 h, mean of 3 mice, 0.5 mg/kg) 0.18 and 0.18 ± 0.03; (mice, 0.5 mg/kg i.v., 2 h, mouse 1) 0.21; (mice, 0.5 mg/kg i.v., 2 h, mouse 2) 0.18; (mice, 0.5 mg/kg i.v., 2 h, mouse 3) 0.16; (mice, 0.5 mg/kg i.v., 22 h, mean of 4 mice) 0.53 ± 0.26; (mice, 0.5 mg/kg i.v., 22 h, mouse 4) 0.80. In addition, the “Brain-to-Plasma Ratio” value came to 0.37 (mice, 0.5 mg/kg i.v., 22 h, mouse 5); 0.18 (mice, 0.5 mg/kg i.v., 22 h, mouse 6); 0.77 (mice, 0.5 mg/kg i.v., 22 h, mouse 7). Moreover, under “mouse #1, 0.5 mg/kg i.v., 2 h, homogenate at 0.1 g tissue/mL, UPLC-MS/MS”, the “actinomycin D concentration in brain tissue homogenate” value is on record as 0.409 ng/mL.
